In assay [1] the target is human cathepsin D (human liver, Cal Biochem, catalog # 219401) (Homo sapiens, UniProt P07339). Put plainly: Immunoblot assay of holo-APP 695 degradation by purified cathepsin D. The assay is classed as biochemical. The method, then: The numbers indicate the time (hr) after initiation of reactions. Reactions were initiated at 37°C by the addition of APP to achieve the following initial component concentrations: APP (82 nM), cathepsin D (9.2 ug/ml),in […] Mes buffer pH 6.5. Samples without pepstatin received the same amount of solvent (1.3 % v/v methanol). At t=0, 43, 84, 140 and 215 minutes aliquots (15 ul) were removed mixed with 7.5 ul of SDS-PAGE sample buffer and subject to immunoblot analysis using the Rabbit antiserum to the APP C-terminal domain. The 18 and 28 kDa reaction products are located with arrows.
Sequence of human cathepsin D (human liver, Cal Biochem, catalog # 219401) (P07339 with tags, fused parts or gaps): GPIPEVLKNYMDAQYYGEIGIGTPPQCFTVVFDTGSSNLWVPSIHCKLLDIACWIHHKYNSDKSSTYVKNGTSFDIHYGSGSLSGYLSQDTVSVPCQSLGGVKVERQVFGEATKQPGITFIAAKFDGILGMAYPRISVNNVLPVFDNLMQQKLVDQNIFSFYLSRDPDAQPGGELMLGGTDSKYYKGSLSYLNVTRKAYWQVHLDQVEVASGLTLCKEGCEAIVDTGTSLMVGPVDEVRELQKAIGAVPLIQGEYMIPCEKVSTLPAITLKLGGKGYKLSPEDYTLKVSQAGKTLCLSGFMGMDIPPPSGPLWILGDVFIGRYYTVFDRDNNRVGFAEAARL
Reactions were initiated at 37°C by APP addition thereby achieving the following initial component concentrations: APP (448 nM), cathepsin D (30 nM), and when included pepstatin A (97.2 µm) in 83 mM sodium acetate buffer pH 5.0. At the indicated time points, aliquots (20 ul), were removed mixed with 10 ul of 3X SDSPAGE sample buffer and subjected to immunoblot analysis using monoclonal antibody 286.8A (1/100). Reactions were performed in the absence (-) or presence (+) of pepstatin A (delivered in methanol). All samples received 2.7 % (v/v) methanol. Lanes 1 and 12 contained prestained Mr markers, Lanes 10 and 18 contained C-100 Mr marker. Lanes 11 and 13 contained APP incubated without cathepsin D for zero and 21hr respectively. The main product fragments are indicated with arrows. […]
For orientation: A western blot detects proteins with antibodies after separation by electrophoresis.

The target of assay [2] is human brain P-2 enzyme (peak B), aspartic protease identified as cathepsin D (Homo sapiens, UniProt P07339). Put plainly: N-dansyl peptide (SEQ ID NO: 7) peptidase assay with HPLC detection, P-2 enzyme (peak B). Format: biochemical. The following applies: pepstatin A 213 uM; P-2 enzyme 17.5 ug/ml, N-Dansyl-peptide 24 uM, pH 5.0, 37 C; Figure 10. On the procedure: Reactions (30 ul) were initiated at 37 C by enzyme/inhibitor addition thereby achieving the following t=0 component concentrations: Cathepsin D (2.8 ug/ml), or P-2 enzyme from figure 6 (17.5 ug/ml), N-Dansyl-peptide (24 uM), captopril (0.3 mM) in a cocktail buffer comprising 130 mM in each of acetate, Mes and Tris pH 5.0. Samples contained either pepstatin A (213 uM in 3% v/v final methanol) or an equivalent final concentration of methanol only. At 0, 2, 4, 8 and 24hr, reactions were terminated by addition of 12 % (v/v) TFA (10 ul) and subject to HPLC analysis according to example 2 and 3.
Sequence of human brain P-2 enzyme (peak B), aspartic protease identified as cathepsin D (P07339 with tags, fused parts or gaps): as above
• i) Incubations. […] Incubation with ion-exchange fractions was performed at 37°C for 24 hrs, after which reactions were terminated by adjusting to 3% (v/v) final in TFA. • ii) HPLC quantification of proteolytic products. HPLC analysis was performed using a Hewlet-Packard HP1090 complete with binary solvent delivery, heated column compartment, and auto injector.

Where a SMILES comes first, the peptide text is derived from it. [ ]: non-standard residue; d: D form. The star is where a group is joined. Sta = CC(C)C[C@H](N)[C@@H](O)CC(=O)O; Isovaleryl = CC(C)CC(=O)*

As for `CC(C)CC(=O)N[C@H](C(=O)N[C@H](C(=O)N[C@@H](CC(C)C)[C@@H](O)CC(=O)N[C@@H](C)C(=O)N[C@@H](CC(C)C)[C@@H](O)CC(=O)O)C(C)C)C(C)C` [pepstatin A] (Isovaleryl-VV[Sta]A[Sta]-OH), the “Inhibition of cathepsin D catalysed APP cleavage (18 and 28 kDa C-terminal products)” value in assay [1] (86 uM pepstatin A, APP 82 nM, cathepsin D 9.2 ug/ml, Mes buffer pH 6.5, 37°C, Figure 8) is on record as “Inhibition”. Moreover, the “Inhibition of cathepsin D catalysed APP degradation (beta-amyloid immunoreactive bands, Figure 13)” value in assay [1] (pepstatin A 97.2 µm, APP 448 nM, cathepsin D 30 nM, sodium acetate buffer pH 5.0, 37°C) is listed as “inhibited”. Also, the “Inhibition of peptidase reaction catalyzed by the P-2 enzyme preparation” value in assay [2] is given as “inhibited”.

For the origin of these results see patent publication EP0569777A2 (Bayer Corporation, priority 1992, dated 1993).
